pIC50: −log10 of the molar value.
Key:
[1] = test system: NLRP3 inflammasome (IL-1β production in THP-1 cells); experiment: IL-1β TR-FRET Assay (percentage of inhibition at 300 nM, 6 μM or 10 μM); format: cell-based, human; details: LPS priming, ATP activation; for inhibition at 0.3 µM: THP-1, 300 nM, read-out: IL-1β inhibitory rate at 300 nM (%); for inhibition at 6 µM: THP-1, 6 μM, read-out: IL-1β inhibitory rate at 6 μM (%)
Summary of the method: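 Percent inhibition of IL-1β used DMSO wells as 0% and 3 μM MCC-950 wells as full inhibition, with supernatant read by HTRF. Beforehand, IFN-γ-differentiated (25 ng/mL, 24 h), LPS-primed (50 ng/mL, 24 h) THP-1 cells received compound 30 min before inflammasome activation by 20 mM ATP for 2 h.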

[2] = test system: TNF-α (NF-κB pathway, THP-1 cells); experiment: TNF-α Assay (IC50); format: cell-based, human; details: 600 ng/mL LPS, 3 hours
Summary of the method: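 Supernatant TNF-α quantified by ELISA after 3 h stimulation with 600 ng/mL LPS at 37 °C, following 30 min compound preincubation. Cells: IFN-differentiated (25 ng/mL, 24 h) THP-1 macrophages, 40,000/well, serum-free. IC50 by sigmoidal fit of % inhibition, with TPCA-1 as 100% control.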

| SMILES | inhibition at 0.3 µM ([1]; Homo sapiens) [%] | pIC50 ([2]; Homo sapiens) | other results |
| --- | --- | --- | --- |
| COCCOc1nc2nn(-c3c(C)cc(C)cc3O)cc2c(=O)[nH]1 [Example 22, 2-(2-hydroxy-4,6-dimethylphenyl)-6-(2-methoxyethoxy)-2,5-dihydro-4H-pyrazolo [3,4-d]pyrimidin-4-one] | 101 | < 4.52 | – |
| COCCOc1nc2nn(-c3c(C)cc(Br)cc3C(F)F)cc2c(=O)[nH]1 [Example 215, 2-[4-bromo-2-(difluoromethyl)-6-methylphenyl]-6-(2-methoxyethoxy)-2,5-dihydro-4H-pyrazolo[3,4-d]pyrimidin-4-one] | 105 | < 4.52 | – |
| CCOc1nc2nn(-c3c(C)cc(C)cc3O)c(C)c2c(=O)[nH]1 [Example 37, 6-ethoxy-2-(2-hydroxy-4,6-dimethylphenyl)-3-methyl-2,5-dihydro-4H-pyrazolo[3,4-d]pyrimidin-4-one] | 101 | < 4.52 | – |
| CCOc1nc2nn(-c3c(C)cc(OC(F)F)cc3C(F)F)cc2c(=O)[nH]1 [Example 195, 2-[4-(difluoromethoxy)-2-(difluoromethyl)-6-methylphenyl]-6-ethoxy-2,5-dihydro-4H-pyrazolo[3,4-d]pyrimidin-4-one] | 101 | < 4.52 | – |
| O=c1[nH]c(C2CCOC2)nc2nn(-c3c(F)cc(C4CC4)cc3C(F)F)cc12 (stereo not drawn) [Example 296, 2-[4-cyclopropyl-2-(difluoromethyl)-6-fluorophenyl]-6-(oxolan-3-yl)-2,5-dihydro-4H-pyrazolo [3,4-d]pyrimidin-4-one] | – | < 4.52 | inhibition at 6 µM ([1]; Homo sapiens): 104% |
| CCOc1nc2nn(-c3c(F)cc(C4CC4)cc3OC(F)F)cc2c(=O)[nH]1 [Example 107, 2-[4-cyclopropyl-2-(difluoromethoxy)-6-fluorophenyl]-6-ethoxy-2,5-dihydro-4H-pyrazolo[3,4-d]pyrimidin-4-one] | 99 | < 4.52 | – |
| CCOc1nc2nn(-c3ncc(C4CC4)cc3C(F)(F)F)cc2c(=O)[nH]1 [Example 153, 2-[5-cyclopropyl-3-(trifluoromethyl)pyridin-2-y]-6-ethoxy-2,5-dihydro-4H-pyrazolo[3,4-d]pyrimidin-4-one] | 101 | < 4.52 | – |
| CCOc1nc2nn(-c3c(C)cc(C4CC4)cc3C)cc2c(=O)n1C [Example 141, 2-(4-cyclopropyl-2,6-dimethylphenyl)-6-ethoxy-5-methyl-2,5-dihydro-4H-pyrazolo[3,4-d]pyrimidin-4-one] | – | < 4.52 | inhibition at 10 µM ([1]; Homo sapiens, THP-1, 10 μM, read-out: IL-1β inhibitory rate at 10 μM (%)): 95% |
| Cc1cc(C)c(-n2cc3c(=O)[nH]c(C4CC4)nc3n2)c(O)c1 [Example 6, 6-cyclopropyl-2-(2-hydroxy-4,6-dimethylphenyl)-2,5-dihydro-4H-pyrazolo[3,4-d]pyrimidin-4-one] | 98 | < 4.52 | – |
| CCOc1nc2nn(-c3c(F)cc(C)cc3OC(F)F)cc2c(=O)[nH]1 [Example 108] | 98 | < 4.52 | – |
| COCc1nc2nn(-c3c(F)cc(C4CC4)cc3C(F)F)cc2c(=O)[nH]1 [Example 308, 2-[4-cyclopropyl-2-(difluoromethyl)-6-fluorophenyl]-6-(methoxymethyl)-2,5-dihydro-4H-pyrazolo[3,4-d]pyrimidin-4-one] | – | < 4.52 | inhibition at 6 µM ([1]; Homo sapiens): 103% |
| Cc1cc(C2CC2)cc(C)c1-n1cc2c(=O)[nH]c(C3CCCO3)nc2n1 (single isomer, unassigned) [Example 228, 2-(4-cyclopropyl-2,6-dimethylphenyl)-6-[(2S)-oxolan-2-yl]-2,5-dihydro-4H-pyrazolo[3,4-d]pyrimidin-4-one or 2-(4-cyclopropyl-2,6-dimethylphenyl)-6-[(2R)-oxolan-2-yl]-2,5-dihydro-4H-pyrazolo[3,4-d]pyrimidin-4-one (HPLC Method A: tR2)] | – | – | IL-1β inhibitory rate at 300 nM (%) ([1]; 300 nM, 0.3 µM): 79%; pIC50 [2]: < 4.52 |
| Cc1cc(C)c(-n2cc3c(=O)[nH]c(C4CCCCO4)nc3n2)c(O)c1 (stereo not drawn) [Example 18, 2-(2-hydroxy-4,6-dimethylphenyl)-6-(oxan-2-yl)-2,5-dihydro-4H-pyrazolo[3,4-d]pyrimidin-4-one] | 99 | < 4.52 | – |
| Cc1cc(C)c(-n2cc3c(=O)[nH]c(OC(C)C)nc3n2)c(O)c1 [Example 7, 2-(2-hydroxy-4,6-dimethylphenyl)-6-[(propan-2-yl)oxy]-2,5-dihydro-4H-pyrazolo[3,4-d]pyrimidin-4-one] | 99 | < 4.52 | – |
| COc1nc2nn(-c3c(F)cc(C4CC4)cc3C(F)F)cc2c(=O)[nH]1 [Example 193, 2-[4-cyclopropyl-2-(difluoromethyl)-6-fluorophenyl]-6-methoxy-2,5-dihydro-4H-pyrazolo[3,4-d]pyrimidin-4-one] | 101 | < 4.52 | – |
| Cc1cc(C2CC2)cc(C)c1-n1cc2c(=O)[nH]c(-c3cc4n(n3)CCOC4)nc2n1 [Example 218, 2-(4-cyclopropyl-2,6-dimethylphenyl)-6-(6,7-dihydro-4H-pyrazolo[5,1-c][1,4]oxazin-2-yl)-2,5-dihydro-4H-pyrazolo[3,4-d]pyrimidin-4-one] | 106 | < 4.52 | – |
| CCOc1nc2nn(-c3c(F)cc(C4CC4)cc3Cl)cc2c(=O)[nH]1 [Example 137, 2-(2-chloro-4-cyclopropyl-6-fluorophenyl)-6-ethoxy-2,5-dihydro-4H-pyrazolo[3,4-d]pyrimidin-4-one] | 98 | < 4.52 | – |
| COCc1nc2nn(-c3c(C)cc(C4CC4)cc3C(F)F)cc2c(=O)[nH]1 [Example 321, 2-[4-cyclopropyl-2-(difluoromethyl)-6-methylphenyl]-6-(methoxymethyl)-2,5-dihydro-4H-pyrazolo[3,4-d]pyrimidin-4-one] | – | < 4.52 | inhibition at 6 µM ([1]; Homo sapiens): 103% |
| Cc1cc(C)c(-n2cc3c(=O)[nH]c(-c4ccnc(C)n4)nc3n2)c(O)c1 [Example 15, 2-(2-hydroxy-4,6-dimethylphenyl)-6-(2-methylpyrimidin-4-yl)-2,5-dihydro-4H-pyrazolo [3,4-d]pyrimidin-4-one] | 99 | < 4.52 | – |
| Cc1cc(C2CC2)cc(C)c1-n1cc2c(=O)[nH]c(C3(F)CC3)nc2n1 [Example 190, 2-(4-cyclopropyl-2,6-dimethylphenyl)-6-(1-fluorocyclopropyl)-2,5-dihydro-4H-pyrazolo[3,4-d]pyrimidin-4-one] | 97 | < 4.52 | – |
| CCOc1nc2nn(-c3c(C)cc(C)c(F)c3F)cc2c(=O)[nH]1 [Example 96, 2-(2,3-difluoro-4,6-dimethylphenyl)-6-ethoxy-2,5-dihydro-4H-pyrazolo[3,4-d]pyrimidin-4-one] | 55 | < 4.52 | – |
| CO[C@H](C)COc1nc2nn(-c3c(F)cc(C4CC4)cc3C(F)F)cc2c(=O)[nH]1 [Example 200, 2-[4-cyclopropyl-2-(difluoromethyl)-6-fluorophenyl]-6-[(2R)-2-methoxypropoxy]-2,5-dihydro-4H-pyrazolo[3,4-d]pyrimidin-4-one] | 98 | < 4.52 | – |
| COc1nc2nn(-c3c(C)cc(C4(F)CC4)cc3C)cc2c(=O)[nH]1 [Example 235, 2-[4-(1-fluorocyclopropyl)-2,6-dimethylphenyl]-6-methoxy-2,5-dihydro-4H-pyrazolo[3,4-d]pyrimidin-4-one] | – | < 4.52 | inhibition at 6 µM ([1]; Homo sapiens): 105% |
| Cc1cc(C)c(-n2cc3c(=O)[nH]c(OCC(F)F)nc3n2)c(O)c1 [Example 32, 6-(2,2-difluoroethoxy)-2-(2-hydroxy-4,6-dimethylphenyl)-2,5-dihydro-4H-pyrazolo[3,4-d]pyrimidin-4-one] | 105 | < 4.52 | – |
| Cc1cc(C2CC2)cc(C)c1-n1cc2c(=O)[nH]c(COC(F)(F)F)nc2n1 [Example 202, 2-(4-cyclopropyl-2,6-dimethylphenyl)-6-[(trifluoro-methoxy)methyl]-2,5-dihydro-4H-pyrazolo[3,4-d]pyrimidin-4-one] | 97 | < 4.52 | – |
| Cc1cc(C)c(-n2cc3c(=O)[nH]c(C4CCCO4)nc3n2)c(O)c1 (stereo not drawn) [Example 29, 2-(2-hydroxy-4,6-dimethylphenyl)-6-(oxolan-2-yl)-2,5-dihydro-4H-pyrazolo[3,4-d]pyrimidin-4-one] | 97 | < 4.52 | – |
| Cc1cc(C2CC2)cc(C)c1-n1cc2c(=O)[nH]c(C3CCOCC3)nc2n1 [Example 198, 2-(4-cyclopropyl-2,6-dimethylphenyl)-6-(oxan-4-yl)-2,5-dihydro-4H-pyrazolo[3,4-d]pyrimidin-4-one] | 95 | < 4.52 | – |
| CCOc1nc2nn(-c3c(C)cc(C)cc3O)cc2c(=O)[nH]1 [Example 1, 6-ethoxy-2-(2-hydroxy-4,6-dimethylphenyl)-2,5-dihydro-4H-pyrazolo[3,4-d]pyrimidin-4-one] | 100 | < 4.52 | – |
| Cc1cc(C2CC2)cc(C(F)F)c1-n1cc2c(=O)[nH]c(C3(F)CC3)nc2n1 [Example 319, 2-[4-cyclopropyl-2-(difluoromethyl)-6-methylphenyl]-6-(1-fluorocyclopropyl)-2,5-dihydro-4H-pyrazolo[3,4-d]pyrimidin-4-one] | – | < 4.52 | inhibition at 6 µM ([1]; Homo sapiens): 100% |
| CCOc1nc2nn(-c3c(C)cc(OC(F)F)cc3F)cc2c(=O)[nH]1 [Example 109] | 99 | < 4.52 | – |

Source: patent publication US20260297092A1, “PYRAZOLOPYRIMIDINE DERIVATIVES AS INHIBITORS OF NLRP3” (Takeda Pharmaceutical Company Limited, priority 2023, published 2026)
